Assay results from patent US11603380B2 (Centre national de la recherche scientifique, priority 2018, dated 2023).
pEC50: −log10 of the molar value.

Test system: varicella-zoster virus (VZV) TK− (07/1)
Test: microbe, parasite or virus in culture
Format: cell-based
Settings: read-out: EC50 VZV TK− (07/1)

Row | Compound | pEC50
1 | CCCCCCCCCCCCCCCCOCCCOP(=O)(C/C=C/COc1cc(N)nc(N)n1)OCOC(=O)OC(C)C (stereo not drawn) [Compound (2), [[(E)-4-(2,6-diaminopyrimidin-4-yl)oxybut-2′-enyl]-(3-hexadecoxypropoxy)phosphoryl]oxymethyl isopropyl carbonate] | 6.62
2 | CCCCCCCCCCCCCCCCOCCCOP(=O)(CC=C(COC(C)=O)COc1cc(Cl)nc(N)n1)OCOC(=O)OC(C)C (mixture of isomers) [Compound (8), [(E/Z)-2′-[(2-amino-6-chloro-pyrimidin-4-yl)oxymethyl]-4-[3-hexadecoxypropoxy(isopropoxycarbonyloxymethoxy)phosphoryl]but-2′-enyl]acetate] | < 4.70
3 | [(E/Z)-2-[[2-[bis(tert-butoxycarbonyl)amino]-6-methoxy-pyrimidin-4-yl]oxymethyl]-4-[3-hexadecoxypropoxy(isopropoxycarbonyloxymethoxy)phosphoryl]but-2′-enyl]acetate [Compound (7)] | < 4.70
